{
  "source": "paper PMC7501995",
  "about": "(Cell metabolism, 2020)",
  "key": {"human subjects with T1D": {"tested_on": "human subjects with T1D", "conditions": "ref Ovalle et al., 2018; cited from earlier work"}, "[1]": {"tested_on": "C57BL/6J mice rendered diabetic by multiple low-dose STZ", "assay": "Multiple low-dose STZ-induced diabetes in C57BL/6J mice", "type": "in vivo, mouse", "conditions": "STZ mice"}},
  "data": [
    {"smiles": "COc1ccc(CCN(C)CCCC(C#N)(c2ccc(OC)c(OC)c2)C(C)C)cc1OC", "note": "(stereo not drawn) [verapamil]", "values": [
      {"measurement": "effect in randomized controlled trial in human subjects with T1D", "setting": "human subjects with T1D", "result": "beneficial effects"}
    ]},
    {"smiles": "CN(C)C(=N)N=C(N)N", "note": "[metformin, reference compound]", "values": [
      {"measurement": "glucose homeostasis", "setting": "[1]; metformin 250 mg/kg/day in drinking water", "result": "improved glucose homeostasis"}
    ]},
    {"smiles": "OC[C@H]1O[C@@H](c2ccc(Cl)c(Cc3ccc(O[C@H]4CCOC4)cc3)c2)[C@H](O)[C@@H](O)[C@@H]1O", "note": "[empagliflozin, reference compound]", "values": [
      {"measurement": "glucose homeostasis", "setting": "[1]; empagliflozin 10 mg/kg/day in drinking water", "result": "improved glucose homeostasis"}
    ]}
  ]
}
